According to US20260174855A1 (priority 2022, published 2026):

Columns and labels:
hMOR = hMOR (Homo sapiens, UniProt P35372); assay: biochemical; settings: read-out: Emax (% of vehicle)
[1] = for NorBUP in fetal brains or maternal plasma: 1 or 3 mg/kg/day s.c. minipump, GD 9-20
hDOR = hDOR (Homo sapiens, UniProt P41143); assay: [35S]GTPγS binding, G-protein activation; format: biochemical; settings: for type of activity at hDOR: 1 μM, no activation; for Emax at 1 µM: hDOR, determined from single-concentration (1 μM) experiments, read-out: Emax (% of vehicle)
Sequence of hDOR (P41143 whole entry): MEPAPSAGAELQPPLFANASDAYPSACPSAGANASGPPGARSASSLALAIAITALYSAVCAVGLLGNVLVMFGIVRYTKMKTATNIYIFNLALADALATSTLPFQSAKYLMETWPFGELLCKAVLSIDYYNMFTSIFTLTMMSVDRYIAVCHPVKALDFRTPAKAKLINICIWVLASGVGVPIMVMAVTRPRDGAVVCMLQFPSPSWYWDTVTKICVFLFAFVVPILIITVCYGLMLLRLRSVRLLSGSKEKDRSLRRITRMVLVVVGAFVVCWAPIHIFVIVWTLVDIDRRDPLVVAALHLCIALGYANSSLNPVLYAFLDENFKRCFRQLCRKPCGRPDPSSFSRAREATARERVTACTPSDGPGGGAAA

rats = assay: warm water tail withdrawal assay (antinociception); settings: for % MPE (at 0.1 mg/kg): 0.1 mg/kg i.v., mean (95% confidence interval); for ED50: Rattus norvegicus, iv
[2] = 4 mg/kg i.v.; data not shown

Sequence of hMOR (P35372 whole entry): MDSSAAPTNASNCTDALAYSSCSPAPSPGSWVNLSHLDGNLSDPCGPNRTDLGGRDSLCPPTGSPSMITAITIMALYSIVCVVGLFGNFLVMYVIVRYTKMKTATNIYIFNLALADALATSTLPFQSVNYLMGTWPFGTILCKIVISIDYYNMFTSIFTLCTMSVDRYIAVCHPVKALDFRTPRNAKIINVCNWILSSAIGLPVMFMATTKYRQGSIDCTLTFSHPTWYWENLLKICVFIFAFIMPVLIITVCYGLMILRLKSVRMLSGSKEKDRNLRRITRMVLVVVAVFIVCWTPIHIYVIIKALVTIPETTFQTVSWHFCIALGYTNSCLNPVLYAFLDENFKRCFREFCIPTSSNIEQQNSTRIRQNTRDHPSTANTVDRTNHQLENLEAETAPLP

Row | Structure (SMILES) | Emax (hMOR) | NorBUP in fetal brains or maternal plasma [1] | area under the curve vs. BUP ([1]; maternal plasma, data not shown) | type of activity at hDOR (hDOR) | Emax at 1 µM (hDOR) | % MPE (at 0.1 mg/kg) (rats; 10 minutes) | % MPE (at 0.1 mg/kg) (rats; 60 minutes) | ED50 (rats; 10 min) | ED50 (rats; 1 h) | area under the NorBUP glucuronide curve, BUP versus BUP-D2 group [2]
1 | C[C@@H](NC(=O)[C@@H](N)Cc1ccc(O)cc1)C(=O)NCC(=O)N(C)[C@@H](Cc1ccccc1)C(=O)NCCO [DAMGO] | 308% | – | – | – | – | – | – | – | – | –
2 | [2H]C([2H])(C1CC1)N1CC[C@]23c4c5ccc(O)c4O[C@H]2[C@@]2(OC)CC[C@@]3(C[C@@H]2[C@](C)(O)C(C)(C)C)C1C5 [BUP-D2, (4aS,6R,7R,7aR,12bS)-3-(cyclopropylmethyl-d2)-6-((S)-2-hydroxy-3,3-dimethylbutan-2-yl)-7-methoxy-1,2,3,4,5,6,7,7a-octahydro-4a,7-ethano-4,12-methanobenzofuro[3,2-e]isoquinolin-9-ol] | – | detected no NorBUP | significantly greater | neutral antagonists of hDORs | 107% | 84.4 (43.5-125.2) % MPE | 97.9 (89.1-106.8) % MPE | 0.021 mg/kg | 0.018 mg/kg | –
3 | CO[C@@]12CC[C@@]3(C[C@@H]1[C@](C)(O)C(C)(C)C)C1Cc4ccc(O)c5c4[C@@]3(CCN1CC1CC1)[C@H]2O5 [BUP, buprenorphine] | – | detected no NorBUP | – | neutral antagonists of hDORs | 114% | 90.1 (68.8-111.4) % MPE | 96.8 (83.2-110.5) % MPE | 0.025 mg/kg | 0.021 mg/kg | significantly greater
